The record followed here is patent US10124001B2, “Stem cell modulation II” (University of Canberra, priority 2013, dated 2018).

Assay [1] deals with PKC-θ (Homo sapiens, UniProt Q04759). In words: PKC ELISA-based kinase assay, in-vitro PKC-θ activity. The conditions noted are these: FIG. 6A. It is filed as biochemical. The method, then:
(§1) PKC activity assay were purchased from Enzo Life Sciences (DI-EKS-420A) and assays were performed according to the manufacture's protocol as previously described (Sutcliffe, 2012, supra).
(§2) PKC-θ and PKC-β activity assays (Enzo Life Sciences; DI-EKS-420A) were performed according to the manufacturer's protocol and as previously described (Sutcliffe et. Al., 2012. Chromatinized Protein Kinase C-theta: Can It Escape the Clutches of NF-kappaB? Front Immunol 3:260).
In general terms: An ELISA detects its analyte on a solid surface through an enzyme-linked reagent.

Assay [2] relates to MCF-7 cells. In words: TaqMan real time PCR transcript analysis of inducible EMT/CSC genes in MCF-IM model. The format is cell-based, human. The conditions noted are these: for transcription of key inducible EMT/CSC genes (laminin-5, uPAR, CD44): 1 hour prior to PMA 60 hrs. From the text:
(§3) Human TaqMan™ primer sets used were: CD44, Hs00153304, CD24, Hs00273561, uPAR, Hs00182181, Laminin-5, Hs00194333, Zeb-1, Hs00611018, Fibronectin, Hs00415006 and Integrin-β, Hs00168458 (Applied Biosystems). Primers used for SYBR Green real-time PGR are: Zeb1 (sense: 5′-[…]-3′ and antisense: 5′-[…]-3′) and Cyclophilin A (sense: 5′-[…]-3′ and antisense: 5′-CACCACATGCTTGCCATCC-3′).
(§4) Total RNA was extracted using TRIzol® Reagent (Invitrogen) and first strand cDNA was synthesized using the Superscript™ III RNase H-reverse transcriptase kit (Invitrogen). TaqMan® Gene Expression Assays and SYBR Green real-time PCR were performed as previously described (Sutcliffe et al., 2009, Molecular and Cellular Biology, 29: 1972-86). MicroRNA assays were performed with the TaqMan® MicroRNA Reverse Transcription Kit (ABI 4366596) and the data were normalized to RNU6B as previously described in Sutcliffe et al. ([…], Molecular Cell 41:704-719).
For orientation: In qPCR the cycle at which signal appears reflects the starting amount.

Assay [3] relates to NF-κB p65. In words: Immunoblotting of MCF-IM nuclear and cytoplasmic fractions for NF-κB p65. The format is cell-based, human. The method, then:
Immunoblot analysis was performed according to the manufacturer's protocol and as previously described (Rao et al., 2003 c-Rel is required for chromatin remodeling across the IL-2 gene promoter. Journal of immunology 170:3724-3731.) with anti-PKC-θ (sc-212, SantaCruz), anti-p65 (ab7970, Abcam), anti-p65 phospho (ser-468) (3039, Cell Signaling), anti-p65 phospho (ser-536) (3031, Cell Signaling) and RNA Pol II(c-21) (ab817, Abcam) antibodies.

In assay [4] the test system is PKC. In words: PKC ELISA-based kinase assay of nuclear or cytoplasmic extract from MCF-IM. It is filed as cell-based, human. To be noted: assays without specific immunoprecipitates, global PKC activity (FIG. 6B). The method, then: as §1, §2
The subject of assay [5] is NF-κB p50 and p65. In words: NF-κB activity assay (TransAM NF-κB Family kit), MCF-IM nuclear extracts. The conditions noted are these: MCF-IM treated with C27 vs vehicle. The format is cell-based, human. The method, then: TransAM NF-κB Family kit was used for NF-κB activity assays (43296, Active Motif). Assays were performed according to the manufacturer's guidelines. 5 μg protein from MDA-MB231 or MCF-IM derived whole cell, nuclear and cytoplasmic extracts were used in triplicate for the assays. Raji nuclear extract was used as a positive control Wild-type and mutated consensus oligonucleotides were also used as a negative and positive controls respectively.

For assay [6], the system named is MCF-7 cells. Description: FACS analysis of CD44high/CD24low CSC-like subpopulation in MCF-IM model. The format is cell-based, human. The conditions noted are these: for CSC formation (CD44high/CD24low, FACS): compound 27 1 uM for 24 hours pre-treatment, PMA 0.65 ng/ml 60 h; for CD44 high CD24 low CSC-like subpopulation (FACS): bisindolylmaleimide-I 100 nm and 1 μM or Go6976 1 μM prior to PMA 60 hrs. Here is the method: (§5) The adherent human mammary adenocarcinoma MCF-7 and MDA-MB-231 cells were cultured in low glucose DMEM (Gibco) and both supplemented with 10% FCS, 2 mM L-glutamine and 0.1% PSN antibiotics. Cells were stimulated with 0.65 ng/ml of phorbol 12-myristate 13-acetate (PMA) (Sigma-Aldrich) or 20 ng/ml of TGF-β (R&D systems) for the times indicated. For Bisindolylmaleimide-I (Calbiochem) or PKC-θ peptide inhibitor (Calbiochem) studies, cells were pre-treated with 1 μM or 30 μM of inhibitor respectively for 1 h prior to stimulation in MCF-7 cells. In case of MDA-MB-231, cells were treated with 4 μM or 30 μM Bisindolylmaleimide-I or PKC-θ peptide inhibitor respectively.
(§6) To separate CSC from non-CSC (NCSC), florescence activated cell sorting (FACS) was performed on single-cell suspensions that were stained with anti-CD44-APC (559942, BD Biosciences) and anti-CD24-PE antibodies (555428, BD Biosciences) along with Hoechst 33258 to monitor cell viability. As used throughout this work, CSC are defined by minority CD44^high/CD24^low, whereas NCSC are defined by rest of the cell populations.
For orientation: A flow cytometer gives signals particle by particle.

In assay [7] the test system is MCF-7 cells. In words: EMT morphology by phase contrast microscopy in MCF-IM model. It is filed as cell-based, human. The method, then:
The adherent human mammary adenocarcinoma MCF-7 and MDA-MB-231 cells were cultured in low glucose DMEM (Gibco) and both supplemented with 10% FCS, 2 mM L-glutamine and 0.1% PSN antibiotics. […] For Bisindolylmaleimide-I (Calbiochem) or PKC-θ peptide inhibitor (Calbiochem) studies, cells were pre-treated with 1 μM or 30 μM of inhibitor respectively for 1 h prior to stimulation in MCF-7 cells. In case of MDA-MB-231, cells were treated with 4 μM or 30 μM Bisindolylmaleimide-I or PKC-θ peptide inhibitor respectively.
(§7) phase contrast microscopy was performed where cells were viewed at ×4 magnification (wound healing assay) or ×10 magnification (EMT) using an Olympus fluorescence 1X^71 microscope (Olympus) and images were captured using DPController software (2002 Olympus Optical Co. LTD) and analysed using Photoshop CS3 (Adobe Systems Inc.). Scans were taken with a 10 μm scale bar.

Assay [8] relates to MCF-7 cells. Description: Mammosphere assay in MCF-IM model. The format is cell-based, human. The conditions noted are these: 1 μM for 1 hr prior to PMA stimulation, 6 days; mammospheres larger than 60 μm counted. The method, then:
Mammosphere culture media components were purchased from StemCell Technologies and mammosphere assays were performed as recommended by the manufacturer's guidelines. Briefly, 40,000 cells/2 ml cell dilutions were then prepared and 2 ml of cells were seeded in the 6 well-ultralow adherent, flat bottom plates (Costar). Mammospheres larger than 60 μm were counted per well on day 7 and pictures were taken.

Assay [9] has as its system MDA-MB 231 cells. In words: TaqMan real time PCR transcript analysis of EMT/CSC genes in basal/metastatic model. The format is cell-based, human. The conditions noted are these: bisindolylmaleimide-I 4 μM.
Description: as §3, §4

Assay [10] concerns PKC-θ. Description: ChIP assay of PKC-θ chromatin association at CSC inducible gene promoters in MCF-IM model. It is filed as cell-based, human. Here is the method: ChIP buffers were purchased from Upstate Biotechnology and ChIP assays were performed according to the protocol supplied by Upstate Biotechnology as previously described (Sutcliffe et al., 2011, Molecular Cell. 41:704-719 ). Antibody used were: Anti-PKC-θ (Santa Cruz, sc-212), Anti-PKC-θ Phospho s695 (Abcam, ab76568) and Pol II c-21 (Abcam, ab817), Promoter primers used for RT-PCR were human CD44 (Fwd: […], Rev: […]), uPAR(Fwd: […], Rev: […]) and IL-6 (Fwd: […], Rev: […]). Sequential ChIP assays performed as described previously by Sutcliffe et al., (2011, Molecular Cell. 41: 704-719).

Assay [11] concerns MDA-MB 231 cells. Description: FACS analysis of CD44high/CD24low CSC-like subpopulation in basal/metastatic model. It is filed as cell-based, human. To be noted: bisindolylmaleimide-I 4 μM. Here is the method:
as §5, §6

In assay [12] the test system is MDA-MB 231 cells. Description: EMT morphology by phase contrast microscopy in basal/metastatic model. It is filed as cell-based, human. The conditions noted are these: Bisindolylmaleimide 4 μM. Here is the method:
as §5, §7

SMILES strings stand for the structures. “Also recorded” adds a separate entry of the source.

Chain of PKC-θ (Homo sapiens, UniProt Q04759) (Q04759 whole entry): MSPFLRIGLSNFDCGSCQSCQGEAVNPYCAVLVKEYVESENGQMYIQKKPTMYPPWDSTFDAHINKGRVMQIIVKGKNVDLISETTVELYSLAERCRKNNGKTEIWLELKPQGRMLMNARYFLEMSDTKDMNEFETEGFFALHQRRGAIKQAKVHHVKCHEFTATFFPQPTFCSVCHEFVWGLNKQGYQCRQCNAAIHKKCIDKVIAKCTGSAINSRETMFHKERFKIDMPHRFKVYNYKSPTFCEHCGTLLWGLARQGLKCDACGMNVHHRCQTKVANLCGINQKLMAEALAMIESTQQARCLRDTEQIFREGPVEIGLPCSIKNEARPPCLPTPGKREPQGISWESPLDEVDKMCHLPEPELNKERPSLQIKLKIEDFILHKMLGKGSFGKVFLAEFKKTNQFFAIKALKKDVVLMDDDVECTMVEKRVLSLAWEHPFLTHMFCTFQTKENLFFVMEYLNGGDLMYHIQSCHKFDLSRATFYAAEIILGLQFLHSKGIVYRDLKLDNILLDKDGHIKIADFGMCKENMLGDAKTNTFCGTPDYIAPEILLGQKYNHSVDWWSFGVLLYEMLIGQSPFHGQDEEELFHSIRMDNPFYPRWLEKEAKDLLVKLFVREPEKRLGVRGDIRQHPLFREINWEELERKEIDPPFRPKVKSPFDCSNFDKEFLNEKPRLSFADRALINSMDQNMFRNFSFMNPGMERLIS

As for `CC(C)[C@@](C)(O)[C@@H]1CN(c2nc(-c3n[nH]c4ncccc34)c(F)cc2Cl)CCN1` [Compound C27], the “PKC-θ activity, in-vitro PKC-θ activity assay” value in assay [1] is recorded as “abrogated PKC-θ activity”. Moreover, in assay [2] (C27 treatment, FIG. 6D), the “transcription of CSC inducible genes” value was “abolished”. Besides, the “p65 in the cytoplasmic fraction” value in assay [3] (C27 treated epithelial and mesenchymal cells, cytoplasmic fraction) was “global accumulation of p65 was observed in the cytoplasmic fraction”. Further, the “p65 phosphorylation at serine 468 in nuclear extracts” value in [3] (MCF-IM nuclear extracts, with or without compound 27) is reported as “this phosphorylation was inhibited”. In addition, the “p65 abundance in the nuclei (pan-p65 antibody)” value in assay [3] (epithelial and mesenchymal state, nuclear fraction) is “inhibited p65 abundance in the nuclei”. The “PKC-θ activity in nuclear and cellular extracts from MCF-IM pre-treated with C27” value in [4] is recorded as “abrogated PKC-θ activity”. Also, in [5], the p50 nuclear activity result is “significantly decreased” and the p65 nuclear activity result is given as “significantly decreased”. Moreover, the “CSC formation (CD44high/CD24low, FACS)” value in assay [6] is reported as “abolished CSC formation”. Also, in [6] (listed as compound 27), the “CSC formation (CD44high/CD24low, FACS)” value is recorded as “prevents CSC formation”.

For the molecule `Cn1c2ccccc2c2c3c(c4c5ccccc5n(CCC#N)c4c21)CNC3=O` [Go6976], in assay [2] (1 μM), the “transcription of key inducible EMT/CSC genes (laminin-5, uPAR, CD44)” value is “failed to inhibit transcription of key inducible EMT/CSC genes”. In addition, the “CD44 high CD24 low CSC-like subpopulation (FACS)” value in assay [6] is recorded as “but not Go 6976 inhibits”. Further, the “PMA-induced CSC formation” value in [6] (pre-incubation with Go6976) is given as “did not prevent”. Also, in assay [7] (pre-incubation with Go6976), the “PMA-induced EMT-like morphological changes” value is reported as “did not prevent PMA-induced EMT-like morphological changes”.

For `CCCCCCCCCCCCCC(=O)O[C@@H]1[C@@H](C)[C@@]2(O)[C@@H](C=C(CO)C[C@]3(O)C(=O)C(C)=C[C@@H]23)[C@@H]2C(C)(C)[C@]12OC(C)=O` [PMA, Phorbol 12-Myristate 13-Acetate], the “generation of CD44high/CD24low CSC like cells” value in [6] (induction of PKC pathway by PMA 0.65 ng/mL 60 hr) is recorded as “results in the generation of CD44^high/CD24^low-CSC like cells”. In addition, in [7] (PMA 20 ng/mL for 60 hr, compared with TNF-α, EGF, IL-6, TGF-β), the “EMT (percentage of cells undergoing EMT, morphology)” value is “results in maximal EMT; also recorded: caused highest EMT changes”.

For the molecule `CN(C)CCCn1cc(C2=C(c3c[nH]c4ccccc34)C(=O)NC2=O)c2ccccc21` [bisindolylmaleimide-I, Bisindolylmaleimide-I], the “transcription of key inducible EMT/CSC genes (laminin-5, uPAR, CD44)” value in assay [2] (100 nM) is given as “cannot inhibit transcription of key inducible EMT/CSC genes”; in assay [2] (1 μM), “inhibits transcription of key inducible EMT/CSC genes”; in assay [9], “inhibits transcription of key inducible EMT/CSC genes”. For the same molecule, in assay [8], the mammosphere formation entry was “reduce mammosphere formation”. Besides, the “binding of PKC-θ on the CD44 gene promoter (ChIP)” value in assay [10] (as worded in Example 4) is recorded as “reduction of binding of PKC-θ on the CD44 gene promoter”. Also, in assay [10] (bisindolylmaleimide-I 1 μM 1 hr pre-incubation, or siRNA 48 hrs, then PMA 60 hrs), the “PKC-θ chromatin association across the uPAR promoter (ChIP)” value is recorded as “reduces its chromatin association across the uPAR promoter”. Moreover, the entries for the “CD44 high CD24 low CSC-like subpopulation (FACS)” value in assay [11] and in assay [6] were “inhibits CD44 high CD24 low-CSC-like subpopulation” and “only very high concentration of bisindolylmaleimide-I”, respectively. The “EMT (morphology)” value in assay [12] is “inhibits EMT”; in assay [7] (bisindolylmaleimide 1 μM, 1 hr pre-treatment before PMA stimulation 60 hrs), “inhibits EMT”.
